# Patent publication US20230183259A1, “Crystal Form Of Thiofuran Pyridazine Compound, Preparation Method Therefor And Application Thereof” (ZHEJIANG MEDICINE CO., LTD. XINCHANG PHARMACEUTICAL FACTORY, priority 2020, published 2023)
# Tests used:
# Type in all cases: physicochemical
# [1] = acceleration test (stability); details: relative humidity 75%±5%; for (%) Impurity B (%) / Crystal form / appearance / Enantiomer (%) / Impurity A (%) / Impurity C (%) / Loss on drying (%) / Single largest impurity (%) / Total relevant substances (%) / content(%): 40° C.±2° C.
# Method: (§1) Stability tests were performed on the samples of Examples 1, 2, 3, 4 and 5. […] Please refer to the results of the acceleration test (40° C.±2° C., relative humidity 75%±5%) of Table 1 and the results of the long-term stability test (25° C.±2° C., relative humidity 60%±10%) of Table 2.
# [2] = long-term stability test; details: 36 months, temperature 25° C. ±2° C.; relative humidity 60%±5%
# [3] = long-term stability test; details: 25° C.±2° C., relative humidity 60%±10%
# Method: as §1
substance,measurement,setting,value
"(S)-2-(4-fluorophenyl)-4-(piperidine-3-aminomethyl)thieno[2,3-d]pyridazine-7-carboxamide hydrochloride [Example 1]","changes in moisture, related substances, optical isomers and contents under storage conditions","[1]; 6 months, temperature 40° C.±2° C.",no significant changes
same,"changes in moisture, related substances, optical isomers and contents under storage conditions",[2],no significant changes
"(S)-2-(4-fluorophenyl)-4-(piperidine-3-aminomethyl)thieno[2,3-d]pyridazine-7-carboxamide hydrochloride [Example 110601-2]",(%) Impurity B (%),[1]; 0 month,0.00%
same,Crystal form,[1]; 0 month,unchanged
same,appearance,[1]; 0 month,yellow crystalline powder
same,Enantiomer (%),"[1]; 0 month, hydrochloride",0.09%
same,Impurity A (%),"[1]; 0 month, hydrochloride",0.32%
same,Impurity C (%),"[1]; 0 month, hydrochloride",0.02%
same,Loss on drying (%),"[1]; 0 month, hydrochloride",7.3%
same,Single largest impurity (%),"[1]; 0 month, hydrochloride",0.02%
same,Total relevant substances (%),"[1]; 0 month, hydrochloride",0.42%
same,content(%),"[1]; 0 month, hydrochloride",98.7%
same,Crystal form,[1]; 1 month,unchanged
same,Impurity C (%),[1]; 1 month,0.02%
same,appearance,[1]; 1 month,yellow crystalline powder
same,(%) Impurity B (%),"[1]; 1 month, hydrochloride",0.03%
same,Enantiomer (%),"[1]; 1 month, hydrochloride",0.12%
same,Impurity A (%),"[1]; 1 month, hydrochloride",0.28%
same,Loss on drying (%),"[1]; 1 month, hydrochloride",7.3%
same,Single largest impurity (%),"[1]; 1 month, hydrochloride",0.03%
same,Total relevant substances (%),"[1]; 1 month, hydrochloride",0.42%
same,content(%),"[1]; 1 month, hydrochloride",99.5%
same,Crystal form,[1]; 2 months,unchanged
same,appearance,[1]; 2 months,yellow crystalline powder
same,(%) Impurity B (%),"[1]; 2 months, hydrochloride",0.04%
same,Enantiomer (%),"[1]; 2 months, hydrochloride",0.1%
same,Impurity A (%),"[1]; 2 months, hydrochloride",0.31%
same,Impurity C (%),"[1]; 2 months, hydrochloride",0.03%
same,Loss on drying (%),"[1]; 2 months, hydrochloride",7.2%
same,Single largest impurity (%),"[1]; 2 months, hydrochloride",0.02%
same,Total relevant substances (%),"[1]; 2 months, hydrochloride",0.44%
same,content(%),"[1]; 2 months, hydrochloride",99.1%
same,(%) Impurity B (%),[1]; 3 months,0.00%
same,Crystal form,[1]; 3 months,unchanged
same,Impurity C (%),[1]; 3 months,0.02%
same,appearance,[1]; 3 months,yellow crystalline powder
same,Enantiomer (%),"[1]; 3 months, hydrochloride",0.09%
same,Impurity A (%),"[1]; 3 months, hydrochloride",0.25%
same,Loss on drying (%),"[1]; 3 months, hydrochloride",7.3%
same,Single largest impurity (%),"[1]; 3 months, hydrochloride",0.02%
same,Total relevant substances (%),"[1]; 3 months, hydrochloride",0.34%
same,content(%),"[1]; 3 months, hydrochloride",99.9%
same,(%) Impurity B (%),[1]; 6 months,0.00%
same,Crystal form,[1]; 6 months,unchanged
same,Impurity C (%),[1]; 6 months,0.02%
same,appearance,[1]; 6 months,yellow crystalline powder
same,Enantiomer (%),"[1]; 6 months, hydrochloride",0.07%
same,Impurity A (%),"[1]; 6 months, hydrochloride",0.25%
same,Loss on drying (%),"[1]; 6 months, hydrochloride",7.2%
same,Single largest impurity (%),"[1]; 6 months, hydrochloride",0.02%
same,Total relevant substances (%),"[1]; 6 months, hydrochloride",0.33%
same,content(%),"[1]; 6 months, hydrochloride",100.1%
same,Crystal form,[3]; 0 month,unchanged
same,ImpurityB(%),[3]; 0 month,0.00%
same,Content (calculated by dried product )(%),"[3]; 0 month, hydrochloride",98.7%
same,Enantiomers (%),"[3]; 0 month, hydrochloride",0.09%
same,ImpurityA(%),"[3]; 0 month, hydrochloride",0.32%
same,ImpurityC(%),"[3]; 0 month, hydrochloride",0.02%
same,Loss on drying (%),"[3]; 0 month, hydrochloride",7.3%
same,Single largest impurity (%),"[3]; 0 month, hydrochloride",0.02%
same,Total relevant substances (%),"[3]; 0 month, hydrochloride",0.42%
same,appearance,"[3]; 0 month, hydrochloride",yellow crystalline
same,Crystal form,[3]; 3 months,unchanged
same,ImpurityB(%),[3]; 3 months,0.00%
same,ImpurityC(%),[3]; 3 months,0.02%
same,Content (calculated by dried product )(%),"[3]; 3 months, hydrochloride",99.8%
same,Enantiomers (%),"[3]; 3 months, hydrochloride",0.09%
same,ImpurityA(%),"[3]; 3 months, hydrochloride",0.30%
same,Loss on drying (%),"[3]; 3 months, hydrochloride",7.3%
same,Single largest impurity (%),"[3]; 3 months, hydrochloride",0.03%
same,Total relevant substances (%),"[3]; 3 months, hydrochloride",0.39%
same,appearance,"[3]; 3 months, hydrochloride",yellow crystalline
same,Crystal form,[3]; 6 months,unchanged
same,ImpurityB(%),[3]; 6 months,0.00%
same,Content (calculated by dried product )(%),"[3]; 6 months, hydrochloride",99.7%
same,Enantiomers (%),"[3]; 6 months, hydrochloride",0.07%
same,ImpurityA(%),"[3]; 6 months, hydrochloride",0.25%
same,ImpurityC(%),"[3]; 6 months, hydrochloride",0.02%
same,Loss on drying (%),"[3]; 6 months, hydrochloride",7.2%
same,Single largest impurity (%),"[3]; 6 months, hydrochloride",0.02%
same,Total relevant substances (%),"[3]; 6 months, hydrochloride",0.34%
same,appearance,"[3]; 6 months, hydrochloride",yellow crystalline
same,Crystal form,[3]; 9 months,unchanged
same,ImpurityC(%),[3]; 9 months,0.02%
same,Content (calculated by dried product )(%),"[3]; 9 months, hydrochloride",99.6%
same,Enantiomers (%),"[3]; 9 months, hydrochloride",0.08%
same,ImpurityA(%),"[3]; 9 months, hydrochloride",0.27%
same,ImpurityB(%),"[3]; 9 months, hydrochloride",0.02%
same,Loss on drying (%),"[3]; 9 months, hydrochloride",7.3%
same,Single largest impurity (%),"[3]; 9 months, hydrochloride",0.02%
same,Total relevant substances (%),"[3]; 9 months, hydrochloride",0.38%
same,appearance,"[3]; 9 months, hydrochloride",yellow crystalline
same,Crystal form,[3]; 12 months,unchanged
same,ImpurityB(%),[3]; 12 months,0.01%
same,Single largest impurity (%),[3]; 12 months,0.02%
same,Content (calculated by dried product )(%),"[3]; 12 months, hydrochloride",99.7%
same,Enantiomers (%),"[3]; 12 months, hydrochloride",0.07%
same,ImpurityA(%),"[3]; 12 months, hydrochloride",0.26%
same,ImpurityC(%),"[3]; 12 months, hydrochloride",0.03%
same,Loss on drying (%),"[3]; 12 months, hydrochloride",7.4%
same,Total relevant substances (%),"[3]; 12 months, hydrochloride",0.36%
same,appearance,"[3]; 12 months, hydrochloride",yellow crystalline
same,Crystal form,[3]; 18 months,unchanged
same,ImpurityB(%),[3]; 18 months,0.00%
same,Single largest impurity (%),[3]; 18 months,0.02%
same,Content (calculated by dried product )(%),"[3]; 18 months, hydrochloride",100.7%
same,Enantiomers (%),"[3]; 18 months, hydrochloride",0.07%
same,ImpurityA(%),"[3]; 18 months, hydrochloride",0.30%
same,ImpurityC(%),"[3]; 18 months, hydrochloride",0.02%
same,Loss on drying (%),"[3]; 18 months, hydrochloride",7.2%
same,Total relevant substances (%),"[3]; 18 months, hydrochloride",0.36%
same,appearance,"[3]; 18 months, hydrochloride",yellow crystalline
same,Crystal form,[3]; 24 months,unchanged
same,Enantiomers (%),[3]; 24 months,0.08%
same,ImpurityB(%),[3]; 24 months,0.00%
same,ImpurityC(%),[3]; 24 months,0.02%
same,Single largest impurity (%),[3]; 24 months,0.02%
same,Content (calculated by dried product )(%),"[3]; 24 months, hydrochloride",99.1%
same,ImpurityA(%),"[3]; 24 months, hydrochloride",0.30%
same,Loss on drying (%),"[3]; 24 months, hydrochloride",7.2%
same,Total relevant substances (%),"[3]; 24 months, hydrochloride",0.37%
same,appearance,"[3]; 24 months, hydrochloride",yellow crystalline
same,Crystal form,[3]; 36 months,unchanged
same,ImpurityC(%),[3]; 36 months,0.02%
same,Single largest impurity (%),[3]; 36 months,0.02%
same,Content (calculated by dried product )(%),"[3]; 36 months, hydrochloride",99.5%
same,Enantiomers (%),"[3]; 36 months, hydrochloride",0.06%
same,ImpurityA(%),"[3]; 36 months, hydrochloride",0.31%
same,ImpurityB(%),"[3]; 36 months, hydrochloride",0.02%
same,Loss on drying (%),"[3]; 36 months, hydrochloride",7.2%
same,Total relevant substances (%),"[3]; 36 months, hydrochloride",0.43%
same,appearance,"[3]; 36 months, hydrochloride",yellow crystalline
